In PubChem BioAssay (NCI):
Where “and” joins values, the source holds several entries; their conditions need not be identical. Equal entries are not always repeated.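 Briefly, cells in 96-well plates were exposed to five compound concentrations for 48 h, and endpoints were estimated by linear interpolation. GI50 marks 50% less growth. TGI denotes the concentration required for complete inhibition of growth.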

Key:
Experiment in all cases: NCI-60 cell line screen, 48 h
OVCAR-8 ovarian = tested on: OVCAR-8 ovarian
CAKI-1 renal = tested on: CAKI-1 renal
SK-MEL-5 melanoma = tested on: SK-MEL-5 melanoma
NCI-H23 lung = tested on: NCI-H23 lung
EKVX NSCLC = tested on: EKVX NSCLC
A549 NSCLC = tested on: A549 NSCLC
SF-295 CNS = tested on: SF-295 CNS
CCRF-CEM leukemia = tested on: CCRF-CEM leukemia
NCI-H226 lung = tested on: NCI-H226 lung
HT29 colon = tested on: HT29 colon
HOP-92 NSCLC = tested on: HOP-92 NSCLC
COLO 205 colon = tested on: COLO 205 colon
MDA-N = tested on: MDA-N
HS 578T breast = tested on: HS 578T breast
UACC-62 melanoma = tested on: UACC-62 melanoma
OVCAR-3 ovarian = tested on: OVCAR-3 ovarian
LOX IMVI melanoma = tested on: LOX IMVI melanoma
PC-3 prostate = tested on: PC-3 prostate
RPMI-8226 leukemia = tested on: RPMI-8226 leukemia
SNB-19 CNS = tested on: SNB-19 CNS
BT-549 breast = tested on: BT-549 breast
SNB-75 CNS = tested on: SNB-75 CNS
OVCAR-4 ovarian = tested on: OVCAR-4 ovarian
HOP-62 NSCLC = tested on: HOP-62 NSCLC
U251 CNS = tested on: U251 CNS
SK-OV-3 ovarian = tested on: SK-OV-3 ovarian
SW-620 colon = tested on: SW-620 colon
HL-60(TB) leukemia = tested on: HL-60(TB) leukemia
A498 renal = tested on: A498 renal
SK-MEL-28 melanoma = tested on: SK-MEL-28 melanoma
DU-145 prostate = tested on: DU-145 prostate
SF-539 CNS = tested on: SF-539 CNS
TK-10 renal = tested on: TK-10 renal
NCI-H460 lung = tested on: NCI-H460 lung
K-562 leukemia = tested on: K-562 leukemia
MOLT-4 leukemia = tested on: MOLT-4 leukemia
UACC-257 melanoma = tested on: UACC-257 melanoma
786-0 renal = tested on: 786-0 renal
SR leukemia = tested on: SR leukemia
MDA-MB-231 breast = tested on: MDA-MB-231 breast
HCC-2998 colon = tested on: HCC-2998 colon
HCT-15 colon = tested on: HCT-15 colon
RXF 393 renal = tested on: RXF 393 renal
SK-MEL-2 melanoma = tested on: SK-MEL-2 melanoma
M14 melanoma = tested on: M14 melanoma
NCI/ADR-RES ovarian = tested on: NCI/ADR-RES ovarian
HCT-116 colon = tested on: HCT-116 colon
OVCAR-5 ovarian = tested on: OVCAR-5 ovarian
MDA-MB-435 = tested on: MDA-MB-435
SF-268 CNS = tested on: SF-268 CNS
UO-31 renal = tested on: UO-31 renal
T-47D breast = tested on: T-47D breast
KM12 colon = tested on: KM12 colon
ACHN renal = tested on: ACHN renal
MALME-3M melanoma = tested on: MALME-3M melanoma
SN12C renal = tested on: SN12C renal
NCI-H522 lung = tested on: NCI-H522 lung
MCF7 breast = tested on: MCF7 breast

`Nc1ccn(C2OC(CO)C(O)C2(F)F)c(=O)n1` (stereo not drawn) gave a GI50 (OVCAR-8 ovarian) of 0.0122 µM, a TGI (OVCAR-8 ovarian) of 1.02 µM and a GI50 (CAKI-1 renal) of 0.00925 µM. For the same compound, the TGI (CAKI-1 renal) was 2.55 µM and 21.4 µM, the GI50 (SK-MEL-5 melanoma) was 0.0392 µM and the TGI (SK-MEL-5 melanoma) was > 100 µM. For the same compound, the GI50 (NCI-H23 lung) was 0.00788 µM, the TGI (EKVX NSCLC) was > 100 µM and the GI50 (A549 NSCLC) was 0.0158 µM. For the same compound, the TGI (A549 NSCLC) was > 100 µM, the GI50 (SF-295 CNS) was 0.0389 µM and the TGI (SF-295 CNS) was 0.0216 µM. The GI50 (CCRF-CEM leukemia) was 0.0614 µM and 0.0268 µM, the GI50 (NCI-H226 lung) was 0.146 µM and 0.095 µM and the TGI (NCI-H226 lung) was > 100 µM. For the same compound, the TGI (HT29 colon) was > 100 µM, the GI50 (HOP-92 NSCLC) was 0.223 µM and the GI50 (COLO 205 colon) was 0.568 µM. For the same compound, the TGI (COLO 205 colon) was > 100 µM, the GI50 (MDA-N) was 0.0647 µM and the TGI (MDA-N) was > 100 µM. The GI50 (HS 578T breast) was > 100 µM, the TGI (HS 578T breast) was > 100 µM and the GI50 (UACC-62 melanoma) was 0.0383 µM. The GI50 (OVCAR-3 ovarian) was 3.62 µM, the TGI (OVCAR-3 ovarian) was > 100 µM and the GI50 (LOX IMVI melanoma) was 0.0285 µM. The TGI (LOX IMVI melanoma) was > 100 µM, the TGI (PC-3 prostate) was > 100 µM and the GI50 (RPMI-8226 leukemia) was 0.561 µM. For the same compound, the TGI (RPMI-8226 leukemia) was > 100 µM, the GI50 (SNB-19 CNS) was 0.0131 µM and the TGI (SNB-19 CNS) was 70.1 µM. For the same compound, the GI50 (BT-549 breast) was 0.0744 µM and 0.0178 µM, the TGI (BT-549 breast) was > 100 µM and the GI50 (SNB-75 CNS) was 0.247 µM and 0.0258 µM and 0.0306 µM. For the same compound, the TGI (SNB-75 CNS) was 0.944 µM, the GI50 (OVCAR-4 ovarian) was > 100 µM and the TGI (OVCAR-4 ovarian) was > 100 µM. For the same compound, the GI50 (HOP-62 NSCLC) was 0.0255 µM, the TGI (HOP-62 NSCLC) was 0.805 µM and 3.16 µM and the GI50 (U251 CNS) was 0.0221 µM. For the same compound, the TGI (U251 CNS) was > 100 µM, the GI50 (SK-OV-3 ovarian) was 0.215 µM and 0.307 µM and the TGI (SK-OV-3 ovarian) was > 100 µM. For the same compound, the GI50 (SW-620 colon) was 0.342 µM and 0.325 µM, the TGI (SW-620 colon) was > 100 µM and the GI50 (HL-60(TB) leukemia) was 0.0286 µM. For the same compound, the TGI (HL-60(TB) leukemia) was 0.22 µM, the GI50 (A498 renal) was 0.0548 µM and the TGI (SK-MEL-28 melanoma) was > 100 µM. For the same compound, the GI50 (DU-145 prostate) was 0.0274 µM, the GI50 (SF-539 CNS) was 0.0167 µM and the TGI (SF-539 CNS) was 0.553 µM and 0.0633 µM. The GI50 (TK-10 renal) was > 100 µM, the TGI (TK-10 renal) was > 100 µM and the GI50 (NCI-H460 lung) was 0.00651 µM. The GI50 (K-562 leukemia) was 0.0824 µM, the GI50 (MOLT-4 leukemia) was 0.0441 µM and the TGI (UACC-257 melanoma) was > 100 µM. For the same compound, the GI50 (786-0 renal) was 0.0039 µM, the GI50 (SR leukemia) was 0.0579 µM and the GI50 (MDA-MB-231 breast) was 7.26 µM and 0.924 µM. The TGI (MDA-MB-231 breast) was > 100 µM, the GI50 (HCC-2998 colon) was 0.94 µM and the TGI (HCC-2998 colon) was > 100 µM. For the same compound, the GI50 (HCT-15 colon) was 2.2 µM, the TGI (HCT-15 colon) was > 100 µM and the GI50 (RXF 393 renal) was 0.0363 µM. The TGI (SK-MEL-2 melanoma) was > 100 µM, the GI50 (M14 melanoma) was 0.00639 µM and the TGI (M14 melanoma) was 0.148 µM and 0.0249 µM. The GI50 (NCI/ADR-RES ovarian) was 0.0144 µM, the GI50 (HCT-116 colon) was 0.00746 µM and the TGI (HCT-116 colon) was > 100 µM. For the same compound, the GI50 (OVCAR-5 ovarian) was 0.182 µM, the TGI (OVCAR-5 ovarian) was > 100 µM and the GI50 (MDA-MB-435) was 0.0189 µM. For the same compound, the TGI (MDA-MB-435) was > 100 µM, the GI50 (SF-268 CNS) was 0.0378 µM and the GI50 (UO-31 renal) was 0.0175 µM. The TGI (UO-31 renal) was 0.685 µM and 0.433 µM and 0.327 µM, the GI50 (T-47D breast) was 1.01 µM and 1.39 µM and the GI50 (KM12 colon) was 2.84 µM. For the same compound, the TGI (KM12 colon) was > 100 µM, the GI50 (ACHN renal) was 0.0252 µM and 0.00379 µM and the TGI (ACHN renal) was 3.48 µM. For the same compound, the GI50 (MALME-3M melanoma) was 0.0883 µM, the GI50 (SN12C renal) was 0.0391 µM and the TGI (SN12C renal) was 0.946 µM and 1.11 µM. The GI50 (NCI-H522 lung) was 1.35 µM, the GI50 (MCF7 breast) was 0.00552 µM and the TGI (MCF7 breast) was > 100 µM.
